Where two headings read alike, the source gives them in different places.
Test system: human peripheral blood mononuclear cells (PBMCs)
Assay: ELISA assay of immunocyte activator: induction of IFN-γ in human PBMCs
Type: cell-based
Settings: 24 h, 37 °C, read-out: EC50 IFN-γ ratio (inducing human PBMCs to produce IFN-γ)
Method: The immune activity of each compound is represented by the function of inducing human peripheral blood mononuclear cells (PBMCs) to produce the immune cytokine IFN-γ by, and the EC50 values thereof are shown in Table 3.
• 1) Peripheral blood samples from healthy human volunteer were collected into heparin anticoagulant tubes to reach 5 mL of fresh blood, and PBS was added at a ratio of 1:1 to dilute the blood (2 mL+2 mL in conventional blood collection tubes). • 2) 5 mL of lymphocyte separation medium was put in a 15 mL sterile centrifuge tube for use. • 3) The diluted blood was aspirated and slowly added from 1 cm above the separation medium along the tube wall, so that the diluted blood overlaid the separation medium and formed a distinct interface therewith. • 4) The centrifuge tube was centrifuged at 2000 rpm at room temperature for 20 min. Now five layers formed in the centrifuge tube: the top layer was plasma layer, and the layer between the plasma layer and the lymphocyte separation medium was the lymphocyte layer as a white film. • 5) The mononuclear cell layer as a white film in the middle was aspirated carefully and mononuclear cells were aspirated as many as possible. The mononuclear cells were washed by more than 5 volumes of PBS twice, and each time, the mononuclear cells were centrifuged at 1500 rpm for 10 min. • 6) The supernatant was removed, then 1 mL of 1640 medium was added and mixed uniformly. A small amount of the mixture was taken for cell counting.
The prepared PBMCs were plated in a 96-well plate (Costar, 3894) (2×10^5 cells per well). Each compound in Table 3 was taken and added into the wells with plated cells at ten concentrations with uniform gradient distribution (0.0001-10 μM, diluted with […] medium containing […]).

[1] = Homo sapiens, PBMC, no pretreatment marked
[2] = Homo sapiens, PBMC, Note a: sample pretreated with human liver microsomal enzyme, 2 h
[3] = Note a: sample pretreated with human liver microsomal enzyme, 2 h
[4] = Homo sapiens, PBMC, pH 5, 24 h, Note d: sample pretreated by hydrolysis, acetate buffer pH 5, 37 °C, 72 h

In the case of `COCCOc1nc(N)c2[nH]c(=O)n(Cc3ccc(CNC(=O)CCC(=O)NC(CCCCc4cn(CCOCCOCCOCCNC(=O)CCN5C(=O)C=CC5=O)nn4)C(=O)NCCOCCOCCOCCOCCNC(=O)CCC(=O)N4Cc5ccccc5C#Cc5ccccc54)cc3)c2n1` (stereo not shown) [Compound K24], the EC50 [1] is reported as 3 nM.

In the case of `CCCCOc1nc(N)c2[nH]c(=O)n(Cc3cn(CCN)nn3)c2n1` [KJ-032], the EC50 [1] is reported as 110 nM.

In the case of `C=C(CN1CCC(Cn2c(=O)[nH]c3c(N)nc(OCCCC)nc32)CC1)C(=O)NCCOCCOCCOCCOCCNC(=O)CCC(=O)N1Cc2ccccc2C#Cc2ccccc21` [Compound K50], the EC50 [1] is reported as 23 nM.

Molecule `C=C(CC(=O)OC)C(=O)NCc1ccc(Cn2c(=O)n(C(=O)NCCNC(=O)OCc3ccc(NC(=O)[C@H](CCCNC(N)=O)NC(=O)[C@@H](NC(=O)CCOCCOCCOCCOCCNC(=O)CCC(=O)N4Cc5ccccc5C#Cc5ccccc54)C(C)C)cc3)c3c(N)nc(OCCOC)nc32)cc1` [Compound K39] has an EC50 (Homo sapiens, PBMC, Note c: sample pretreated with Cathepsin-B (10 μg) in PBS, room temperature, 3 h) of 1 nM.

`C=C(CN(C[C@H](C)c1ccc(-c2c(O)cc(C)c3[nH]c(=O)c4sccc4c23)cc1)C(=O)OCc1ccc(NC(=O)[C@H](CCCNC(N)=O)NC(=O)[C@@H](NC(=O)CCOCCOCCOCCOCCN2C(=O)C=CC2=O)C(C)C)cc1)C(=O)N1CCC(n2cc(Cn3c(=O)n(C(=O)N4CCN(C)CC4)c4c(N)nc(OCCCC)nc43)nn2)CC1` [Compound K62] gave an EC50 [2] of 10 nM.

Molecule `C#CCCCCC(NC(=O)CCC(=O)NCc1ccc(Cn2c(=O)[nH]c3c(N)nc(OCCOC)nc32)cc1)C(=O)O` (stereo not shown) [SZU-115, reference compound] has an EC50 (no pretreatment marked, listed as GY115, 1440 min) of 300 nM.

`C=C(CN(CCCCc1cn(CCOCCOCCOCCn2cc(Cn3c(=O)[nH]c4c(N)nc(OCCCC)nc43)nn2)nn1)C[C@H](C)c1ccc(-c2c(O)cc(C)c3[nH]c(=O)c4sccc4c23)cc1)C(=O)NCCCCCCNC(=O)[C@@H](CCCCn1cc(COCCOCCOCCN=C=S)nn1)NC(=O)CCC(=O)NCc1ccc(Cn2c(=O)[nH]c3c(N)nc(OCCOC)nc32)cc1` [Compound K64] showed an EC50 [1] of 10 nM.

In the case of `C#CCCC(=O)NCc1ccc(Cn2c(=O)[nH]c3c(N)nc(OCCOC)nc32)cc1` [SZU-136, reference compound], the EC50 [1] is reported as 370 nM.

`C=C(CN1CCC(n2cc(Cn3c(=O)[nH]c4c(N)nc(O[C@@H](C)CCC)nc43)nn2)CC1)C(=O)OCC` [GY229] was tested, and the EC50 [1] was 28 nM.

In the case of `C=C(CN1CCC(n2cc(Cn3c(=O)[nH]c4c(N)nc(O[C@@H](C)CCC)nc43)nn2)CC1)C(=O)NCCOCCOCCOCCOCCNC(=O)CCC(=O)N1Cc2ccccc2C#Cc2ccccc21` [Compound K54], the EC50 [1] is reported as 18 nM.

Molecule `CCC[C@H](C)Oc1nc(N)c2[nH]c(=O)n(CC3CCN(C(=O)/C=C/C(=O)c4ccc(OC)cc4)CC3)c2n1` [KJ-102] has an EC50 [1] of 3 nM.

Molecule `COCCOc1nc(N)c2[nH]c(=O)n(Cc3ccc(CNC(=O)CCC(=O)NC(CCCCNC(=O)OCc4ccc(NC(=O)[C@H](CCCNC(N)=O)NC(=O)[C@@H](NC(=O)CCCCCN5C(=O)C=CC5=O)C(C)C)cc4)C(=O)NCCOCCOCCOCCOc4ccc(-c5nnc(C)nn5)cc4)cc3)c2n1` (stereo partly shown) [Compound K29] has an EC50 [1] of 31 nM.

For `C=C(CN1CCC(n2cc(Cn3c(=O)[nH]c4c(N)nc(O[C@@H](C)CCC)nc43)nn2)CC1)C(=O)O` [GY300], the EC50 [1] was 31 nM.

With `COCCOc1nc(N)c2[nH]c(=O)n(Cc3ccc(CNC(=O)CCc4cn(CCOCCOCCOCCN(CCOCCOCCOCCn5cc(CCC(=O)NCc6ccc(Cn7c(=O)[nH]c8c(N)nc(OCCOC)nc87)cc6)nn5)C(=O)OCc5ccc(NC(=O)[C@H](CCCNC(N)=O)NC(=O)[C@@H](CC(=O)NCOCCOCCOCCN=[N+]=[N-])C(C)C)cc5)nn4)cc3)c2n1` [Compound K23] the EC50 [1] was 30 nM.

`CCC[C@H](C)Oc1nc(N)c2c(n1)n(CC1CC[N+]([O-])(CCO)CC1)c(=O)n2C(=O)NCCNC(=O)OCc1ccc(NC(=O)[C@H](CCCNC(N)=O)NC(=O)[C@@H](NC(=O)CCOCCOCCOCCOCCNC(=O)CCC(=O)N2Cc3ccccc3C#Cc3ccccc32)C(C)C)cc1` (stereo partly shown) [Compound K63] showed an EC50 [2] of 80 nM.

Molecule `CCC[C@H](C)Oc1nc(N)c2[nH]c(=O)n(CC3CCN(CCO)CC3)c2n1` [KJ-3b, reference compound] has an EC50 [1] of 210 nM.

In the case of `COCCOc1nc(N)c2[nH]c(=O)n(Cc3ccc(CNC(=O)CCC(=O)NC(CCCCc4cn(CCOCCOCCOCCNC(=O)CCN5C(=O)C=CC5=O)nn4)C(=O)N[C@H](C(=O)N[C@@H](CCCNC(N)=O)C(=O)Nc4ccc(COC(=O)NC[C@H](C)c5ccc(-c6c(O)cc(C)c7[nH]c(=O)c8sccc8c67)cc5)cc4)C(C)C)cc3)c2n1` (stereo partly shown) [Compound K3], the EC50 [1] is reported as 200 nM.

With `C=CC(=O)Nc1cc(Nc2nccc(-c3cn(C)c4ccccc34)n2)c(OC)cc1N(C)CCN(C)CCCCCCNC(=O)[C@@H](CCCCn1cc(COCCOCCOCCOCCNC(=O)CCC(=O)N2Cc3ccccc3C#Cc3ccccc32)nn1)NC(=O)COCCOCCOCCn1cc(Cn2c(=O)[nH]c3c(N)nc(OCCCC)nc32)nn1` [Compound K36] the EC50 [1] was 110 nM.

Molecule `COCCOc1nc(N)c2[nH]c(=O)n(Cc3ccc(CNC(=O)CCC(=O)NC(CCCCc4cn(CCCCN5CCN(CCCNC(=S)N6CCCC(n7nc(-c8ccc(Oc9ccccc9)cc8)c8c(N)ncnc87)C6)CC5)nn4)C(=O)N4CCN(C(=O)OCc5ccc(NC(=O)[C@H](CCCNC(N)=O)NC(=O)[C@@H](NC(=O)CCOCCOCCOCCOCCN6C(=O)C=CC6=O)C(C)C)cc5)CC4)cc3)c2n1` (stereo partly shown) [Compound K27] has an EC50 [1] of 250 nM.

In the case of `CC[C@@]1(O)C(=O)OCc2c1cc1n(c2=O)Cc2c-1nc1cc(F)c(C)c3c1c2[C@@H](NC(=O)CNC(=O)OCn1c(=O)n(Cc2ccc(CNC(=O)CCc4cn(CCOCCOCCOCCNC(=O)CCN5C(=O)C=CC5=O)nn4)cc2)c2nc(OCCOC)nc(N)c21)CC3` [Compound K42], the EC50 (Homo sapiens, PBMC, Note d: sample pretreated by hydrolysis, acetate buffer pH 5, 37 °C, 72 h) is reported as 7 nM.

With `C=C(CN1CCC(Cn2c(=O)[nH]c3c(N)nc(OCCCC)nc32)CC1)C(=O)OCC` [KJ-098] the EC50 [1] was 310 nM.

`COCCOc1nc(N)c2c(n1)n(Cc1ccc(CNC(=O)CCc3cn(CCOCCOCCOCCNC(=O)OCc4ccc(NC(=O)[C@H](CCCNC(N)=O)NC(=O)[C@@H](NC(=O)CCCCC(=O)O)C(C)C)cc4)nn3)cc1)c(=O)n2C1CCCO1` (stereo partly shown) [Compound K12] gave an EC50 [2] of 200 nM.

`C=C(CC)C(=O)c1ccc(OCC(=O)NCc2ccc(Cn3c(=O)[nH]c4c(N)nc(OCCOC)nc43)cc2)c(Cl)c1Cl` [SZU-103, reference compound] gave an EC50 [1] of 100 nM.

Work on `C=C(CC)C(=O)c1ccc(OCC(=O)NCc2ccc(Cn3c(=O)n(COC(=O)OCc4ccc(NC(=O)[C@H](C)NC(=O)[C@@H](NC(=O)CCOCCOCCOCCOCCNC(=O)CCC(=O)N5Cc6ccccc6C#Cc6ccccc65)C(C)C)cc4)c4c(N)nc(OCCOC)nc43)cc2)c(Cl)c1Cl` [Compound K60] yielded an EC50 [3] of 90 nM.

`COCCOc1nc(N)c2c(n1)n(Cc1ccc(CNC(=O)CCc3cn(CCOCCOCCOCCNC(=O)OCc4ccc(NC(=O)[C@H](CCCNC(N)=O)NC(=O)[C@@H](NC(=O)CCCCCN5C(=O)C=CC5=O)C(C)C)cc4)nn3)cc1)c(=O)n2C(=O)N1CCN(C)CC1` [Compound K10] was tested, and the EC50 [2] was 210 nM.

`CCCCOc1nc(N)c2[nH]c(=O)n(Cc3cn(CCOCCOCCOCCN(C[C@H](C)c4ccc(-c5c(O)cc(C)c6[nH]c(=O)c7sccc7c56)cc4)C(=O)OCc4ccc(NC(=O)[C@H](CCCNC(N)=O)NC(=O)[C@@H](NC(=O)CCCCCN5C(=O)C=CC5=O)C(C)C)cc4)nn3)c2n1` [Compound K18] showed an EC50 [1] of 90 nM.

`COCCOc1nc(N)c2[nH]c(=O)n(Cc3ccc(CNC(=O)CCC(=O)NC(CCCCc4cn(CCOCCOCCOCCNC(=O)CCN5C(=O)C=CC5=O)nn4)C(=O)NCCOCCOCCOCCOc4ccc(-c5nnc(C)nn5)cc4)cc3)c2n1` (stereo not shown) [Compound K25] gave an EC50 [1] of 5 nM.

For `CCC[C@H](C)Oc1nc(N)c2c(n1)n(CC1CCN(C(=O)/C=C/C(=O)c3ccc(OC)cc3)CC1)c(=O)n2C(=O)NCCNC(=O)OCc1ccc(NC(=O)[C@H](CCCNC(N)=O)NC(=O)[C@@H](NC(=O)CCOCCOCCOCCOCCNC(=O)CCC(=O)N2Cc3ccccc3C#Cc3ccccc32)C(C)C)cc1` [Compound K57], the EC50 [3] was 3 nM.

For `COCCOc1nc(N)c2c(n1)n(Cc1ccc(CNC(=O)CCc3cn(CCOCCOCCOCCNC(=O)CCN4C(=O)C=CC4=O)nn3)cc1)c(=O)n2COC(=O)OC(C)C` [Compound K16], the EC50 [4] was 11 nM.

`CCCCOc1nc(N)c2[nH]c(=O)n(Cc3ccc(NC(=S)Nc4sc5c(c4C(=O)NC(CCCCN=C=S)C(=O)NCCOCCOCCOCCOCCNC(=O)CCC(=O)N4Cc6ccccc6C#Cc6ccccc64)CCCC5)cc3)c2n1` (stereo not shown) [Compound K47] was tested, and the EC50 [1] was 150 nM.

In the case of `C=CCNC(=S)NCC(=O)n1c(=O)n(Cc2ccc(CNC(=O)CCc3cn(CCOCCOCCOCCNC(=O)CCN4C(=O)C=CC4=O)nn3)cc2)c2nc(OCCOC)nc(N)c21` [Compound K67], the EC50 [4] is reported as 260 nM.
